Legend:
[1] = tested on: gray mold (Botrytis cinerea); assay: Tomato gray mold control test (preventive effects); assay type: in vivo; conditions: potted tomato (giant Fukuju variety), spraying liquid 300 ppm before spore inoculation, investigated 2 days after inoculation, levels 0 to 3
Protocol: Bulk drug was dissolved in a mixed solution of dimethylsulfoxide and methanol (volume ratio: 7/3), and spraying liquids containing 300 ppm of compounds of the present invention were uniformly sprayed onto potted test plants (tomato: giant Fukuju variety) in the second to third leaf stage. […], a suspension of pathogen spores were inoculated by spraying onto the pots in an inoculation room at a room temperature of 20 to 23° C. to promote the onset of disease. The degree of disease onset was investigated 2 days after inoculation. The test was carried out in duplicate.
Furthermore, the degree of disease onset was evaluated to one of four levels from 0 to 3 according to the criteria below by macroscopically observing the degree of disease onset of the test plants.
1: Degree of disease onset less than 40% of the untreated area
2: Degree of disease onset 40% to less than 80% of the untreated area
3: Degree of disease onset 80% or more

[2] = tested on: rice blast (Pyricularia oryzae); assay type: in vivo; conditions: potted rice (variety Karakaze), spraying liquid 300 ppm after spore inoculation, observed 7 days after inoculation, levels 0 to 3

Row | Compound | degree of disease onset [1] | melting point [°C] | degree of disease onset [2]
1 | CC1(C)Cc2c(F)cccc2C(c2cnc3ccccc3c2)N1 (stereo not drawn) [Example 110, 3-(5-fluoro-3,3-dimethyl-1,2,3,4-tetrahydroisoquinoline-1-yl)quinoline] | 0 | 142 to 144 | 0
2 | CC1(C)Cc2c(Cl)cccc2C(c2cnc3ccccc3c2)N1 (stereo not drawn) [Example 112, 3-(5-chloro-3,3-dimethyl-1,2,3,4-tetrahydroisoquinoline-1-yl)quinoline] | 0 | 129 to 131 | 0
3 | CC1(C)Cc2c(Cl)cccc2C(C)(c2cnc3ccccc3c2)N1 (stereo not drawn) |  | 142 to 144 | 
4 | CC1c2c(F)cccc2C(c2cnc3ccccc3c2)NC1(C)C (stereo not drawn) [Example 124, 3-(5-fluoro-3,3,4-trimethyl-1,2,3,4-tetrahydroisoquinoline-1-yl)quinoline] |  | 133 to 134 | 0
5 | CC1(C)Cc2c(C(N)=O)cccc2C(c2cnc3ccccc3c2)=N1 |  | 236 to 240 | 
6 | CC1(C)N=C(c2cnc3ccccc3c2)c2cccc(F)c2C1O (stereo not drawn) |  | 225 to 226 | 
7 | CCC1(OC)c2c(F)cccc2C(c2cnc3ccccc3c2)=NC1(C)C (stereo not drawn) [Example 185, 3-(4-ethyl-5-fluoro-4-methoxy-3,3-dimethyl-3,4-dihydroisoquinolin-1-yl)quinoline] |  | 145 to 147 | 0
8 | CC1(C)N=C(c2cnc3ccccc3c2)c2cc(Br)ccc2C1(F)F |  | 123 to 125 | 
9 | CC1(C)NC(c2cnc3ccccc3c2)c2cccc(F)c2C1(C)C (stereo not drawn) [Example 125, 3-(5-fluoro-3,3,4,4-tetramethyl-1,2,3,4-tetrahydroisoquinoline-1-yl)quinoline] |  | 179 to 181 | 0
10 | Cc1cccc2cc(C3=NC(C)(C)Cc4c(F)cccc43)cnc12 [Example 14, 3-(5-fluoro-3,3-dimethyl-3,4-dihydroisoquinolin-1-yl)-8-methylquinoline] | 0 |  | 0
11 | CC1(C)N=C(c2cnc3ccccc3c2)c2cccc(F)c2C1(F)F [Example 178, 3-(4,4,5-trifluoro-3,3-dimethyl-3,4-dihydroisoquinolin-1-yl)quinoline] | 0 |  | 0
12 | CC1(C)Cc2ccc(Cl)cc2C(c2cnc3ccccc3c2)=N1 [Example 21, 3-(7-chloro-3,3-dimethyl-3,4-dihydroisoquinolin-1-yl)quinoline] | 0 |  | 0
13 | CC1(Cc2ccccc2)Cc2ccccc2C(c2cnc3ccccc3c2)=N1 (stereo not drawn) [Example 79, 3-(3-Benzyl-3-methyl-3,4-dihydroisoquinolin-1-yl)quinoline] | 0 |  | 0
14 | CC1(C)c2cc(F)ccc2C(c2cnc3ccccc3c2)=[N+]([O-])C1(C)C [Example 209, 3-(6-fluoro-3,3,4,4-tetramethyl-2-oxide-3,4-dihydroisoquinolin-1-yl)quinoline] | 0 |  | 0
15 | CC1(C)Cc2ccccc2C(c2cnc3ccccc3c2)N1 (stereo not drawn) [Example 4, 3-(3,3-dimethyl-1,2,3,4-tetrahydroisoquinolin-1-yl)quinoline] |  | 117 to 122 | 0
16 | CC1(C)NC(c2cnc3ccccc3c2)c2cccc(F)c2C1=O (stereo not drawn) |  | 228 to 229 | 
17 | CC1(C)c2cc(Cl)ccc2C(c2cnc3ccccc3c2)=[N+]([O-])C1(C)C [Example 211, 3-(6-chloro-3,3,4,4-tetramethyl-2-oxide-3,4-dihydroisoquinolin-1-yl)quinoline] | 0 |  | 0
18 | Cc1cccc2cc(C3=NC(C)(C)C(C)(C)c4c(F)cccc43)cnc12 [Example 165, 3-(5-fluoro-3,3,4,4-tetramethyl-3,4-dihydroisoquinolin-1-yl)-8-methylquinoline] | 0 |  | 0

Row | Compound | degree of disease onset [1] | melting point [°C] | degree of disease onset [2]
19 | 3-(5-fluoro-3,3-dimethyl-3,4-dihydroisoquinolin-1-yl)quinoline salicylate [Example 108] | 0 |  | 0
20 | CC1(C)c2ccccc2C2(c3cnc4ccccc4c3)ON2C12CCCC2 (stereo not drawn) [Example 202, 4′,4′-dimethyl-8b′-quinolin-3-yl-4′,8b′-dihydrospiro[cyclopentane-1,3′-oxazileno[3,2-a]isoquinoline]] | 0 |  | 0
21 | CCC1(C)Cc2c(F)cccc2C(c2cnc3ccccc3c2)=N1 (stereo not drawn) [Example 56, 3-(3-ethyl-5-fluoro-3-methyl-3,4-dihydroisoquinolin-1-yl)quinoline] | 0 |  | 0
22 | CCOC1(C)c2c(F)cccc2C(c2cnc3ccccc3c2)=NC1(C)C (stereo not drawn) [Example 184, 3-(4-ethoxy-5-fluoro-3,3,4-trimethyl-3,4-dihydroisoquinolin-1-yl)quinoline] |  | 118 to 119 | 0
23 | CC1(C)c2c(F)cccc2C2(c3cnc4ccccc4c3)ON2C1(C)C (stereo not drawn) [Example 193, 5-fluoro-3,3,4,4-tetramethyl-8b-quinolin-3-yl-4,8b-dihydro-3H-oxazileno[3,2-a]isoquinoline] | 0 |  | 0
24 | CC1(C)Cc2c(F)cccc2C2(c3cnc4ccccc4c3)ON12 (stereo not drawn) [Example 197, 5-fluoro-3,3-dimethyl-8b-quinolin-3-yl-4,8b-dihydro-3H-oxazileno[3,2-a]isoquinoline] | 0 |  | 0
25 | CC1(CCl)Cc2ccccc2C(c2cnc3ccccc3c2)=N1 (stereo not drawn) [Example 66, 3-(3-chloromethyl-3-methyl-3,4-dihydroisoquinolin-1-yl)quinoline] | 0 |  | 0
26 | CC1(C)Cc2c(F)cccc2C(c2cnc3ccccc3c2)=N1 [Example 2, 3-(5-fluoro-3,3-dimethyl-3,4-dihydroisoquinolin-1-yl)quinoline] | 0 |  | 0
27 | CC1(C)N=C(c2cnc3ccccc3c2)c2ccccc2C1=O |  | 137 | 
28 | CN1C(c2cnc3ccccc3c2)c2ccccc2CC1(C)C (stereo not drawn) |  | 116 to 118 | 
29 | CC1(C)Cc2c(ccc(F)c2F)C(c2cnc3ccccc3c2)=N1 [Example 52, 3-(5,6-difluoro-3,3-dimethyl-3,4-dihydroisoquinolin-1-yl)quinoline] | 0 |  | 0
30 | CC1(C)Cc2c(cccc2-c2cnco2)C(c2cnc3ccccc3c2)=N1 |  | 175 to 179 | 
31 | CC1(C)[N+]([O-])=C(c2cnc3ccccc3c2)c2cccc(F)c2C1(F)F [Example 219, 3-(4,4,5-trifluoro-3,3-dimethyl-2-oxide-3,4-dihydroisoquinolin-1-yl)quinoline] | 0 |  | 0
32 | CC1(C)[N+]([O-])=C(c2cnc3ccccc3c2)c2ccccc2C1(F)F [Example 218, 3-(4,4-difluoro-3,3-dimethyl-2-oxide-3,4-dihydroisoquinolin-1-yl)quinoline] | 0 |  | 0
33 | CC1(C)c2ccccc2C(c2cnc3ccccc3c2)=[N+]([O-])C1(C)C [Example 207, 3-(3,3,4,4-tetramethyl-2-oxide-3,4-dihydroisoquinolin-1-yl)quinoline] | 0 |  | 0
34 | CC1(CC(F)(F)F)Cc2ccccc2C(c2cnc3ccccc3c2)=N1 (stereo not drawn) [Example 69, 3-(3-trifluoroethyl-3-methyl-3,4-dihydroisoquinolin-1-yl)quinoline] | 0 |  | 0
35 | CC1(C)Cc2c(F)cccc2C(C)(c2cnc3ccccc3c2)N1 (stereo not drawn) |  | 148 to 150 | 
